The source of these data is patent publication US20090264383A1, “Inhibitor of Adenylyl Cyclase for Treating a Disorder of the Circadian Rhythm” (Medical Research Council, priority 2006, published 2009).

Entries after “also recorded” stand apart in the source; their conditions may differ.

Data set [1] deals with NIH 3T3 cells. The experiment in a line: Circadian gene expression in NIH 3T3 cells transfected with mBmal1::luc reporter. The note with it: for effect on circadian period: 3T3 fibroblasts; for effect on circadian gene expression / output: mBmal1::luc reporter. Format: cell-based, mouse. The source says: Inhibition of the Gsα-binding site of AC caused a dose-dependent, reversible, dampening of circadian gene expression from Per1::luciferase organotypic SCN slice cultures, monitored by photomultiplier tubes. To determine the generality of this effect, we examined 3-T3 fibroblast cells. Abrogation of the endogenous oscillation of cAMP concentration stopped circadian gene expression as reported by Bmal1::luciferase reporter constructs P-site AC inhibition prolonged fibroblast period from ca. 21 hours to ca. 30 hours.
(§1) Recordings of luciferase activity from organotypic slices of SCN or peripheral tissues were made from 5-7 day old pups from PER2::LUC and, Per1::LUC mice using either photomultiplier assemblies for whole tissue emission or CCD camera for single SCN cell imaging (Hamamatsu Photonics Ltd, U.K.) as described May Wood et al 2006 Curr. Biol. Vol. 16 pp 599-605. cAMP-ELISA kit was purchased from R&D systems (Wiesbaden, Germany). NIH 3T3 cells were cultured as described (Kume et al 1999 Cell Vol 98 pp 193-205) and transfected using Genejuice (Novagen, San Diego, Calif.). All drugs were purchased from Sigma-Aldrich (Poole, UK) except PKA/Epac-active cAMP analogues (Axxora; Grünberg; Germany) and KT5720 (Calbiochem, Nottingbam, UK). Drugs were solubilized in medium or dimethylsulfoxide (DMSO) to make stock solutions 50-1000× the working solutions. [DMSO] was never greater than 0.4%. RNA-interference against Epac1 and Epac 2 used pre-validated sequences as instructed (Validated Stealth RNAi, Invitrogen, CA). Western Blots were performed as Reddy et al (2006 Curr. Biol. Vol 16 oo 1107-15). Behavioural rhythms, recorded by running wheel and passive infra-red movement detectors, were analysed in Clocklab (Actimetrics, Evanston Ill.). Central cannulae directed stereotaxically at the SCN and sub-cutaneous minipumps (Alzet® model 1002 pump and brain infusion kit II) for drug infusion were fitted as instructed (Durect Corp. Cupertino, Calif.).
(§2) Statistical analysis was performed using Prism GraphPad™ and Statview™. Periods were calculated over ≧3 days recoding For comparative purposes, transcriptional amplitude from PMT recordings was calculated as 100× (post-treatment emission peak-trough/pre-treatment peak-trough). In all cases error bars indicate SEM about the mean where n≧3.

A further data set concerns organotypic SCN slices. The experiment in a line: Bioluminescence recording of circadian gene expression in organotypic SCN slices (mPer1::luc / PER2::LUC). Format: cell-based, mice. The note with it: for effect on circadian period / effect on circadian amplitude / gene expression: wild-type mPer1::luc / PER2::LUC SCN slices; for synchrony of SCN neurons (CCD imaging): 1.0 μM MDL for over 7 days, PER2::LUC slice; for rescue of circadian gene expression in MDL-treated SCN slices: PER2-LUC SCN slices pre-treated with MDL (2.5 μM), Epac agonist 100 μM. The protocol: (§3) Per1::luciferase and; Per2-luc transgenic mice were used. For organotypic slice culture, brains were removed from pups 5-10 days old and sectioned at 300 um with a McIlwain “Tissue Chopper.” Slices were sorted and trimmed to contain principally SCN tissue and placed onto a Millipore membrane insert (PICMORG) for culture at 37° C. in 5% CO2 as described previously (Gainer et al, 1998).
as §1, with “All drugs were purchased from Sigma-Aldrich (Poole, UK) except PKA/Epac-active cAMP analogues (Axxora; Grünberg; Germany) and KT5720 (Calbiochem, Nottingbam, UK).” left out
as §2

The test system of another data set is SCN. The experiment in a line: Free-running period of wheel-running behaviour, THFA infused to SCN by minipump and central cannula. Format: in vivo. Conditions: chronic central THFA vs vehicle; continuous dim red light; nine mice. The protocol: (a) Representative double-plotted, actograms of (left) vehicle- and (right) THFA-treated mice entrained to a photoschedule of 12 hours light (shaded) and 12 hours dark and fitted with osmotic mini-pump and central cannula directed at SCN (asterisk) Mice were then released into continuous dim-red light and free-running period determined Note longer period in THFA-treated mice.
as §1, with “[DMSO] was never greater than 0.4%. RNA-interference against Epac1 and Epac 2 used pre-validated sequences as instructed (Validated Stealth RNAi, Invitrogen, CA). Western Blots were performed as Reddy et al (2006 Curr. Biol. Vol 16 oo 1107-15).” left out, “Central cannulae directed stereotaxically at the SCN and sub-cutaneous minipumps (Alzet® model 1002 pump and brain infusion kit II) for drug infusion were fitted as instructed (Durect Corp. Cupertino, Calif.).” left out

For another data set, the system named is intact human neutrophils. The note with it: Simchowitz et al 1983; cited from earlier work.
The next data set is described as follows: Water solubility. Format: physicochemical.
The test system of a further data set is peripheral tissues. Description: Circadian recording in organotypic cultures of peripheral tissues from mPER2::LUC mice. The class given is cell-based. The protocol: as §1, with “RNA-interference against Epac1 and Epac 2 used pre-validated sequences as instructed (Validated Stealth RNAi, Invitrogen, CA). Western Blots were performed as Reddy et al (2006 Curr. Biol. Vol 16 oo 1107-15).” left out, “Central cannulae directed stereotaxically at the SCN and sub-cutaneous minipumps (Alzet® model 1002 pump and brain infusion kit II) for drug infusion were fitted as instructed (Durect Corp. Cupertino, Calif.).” left out
Statistical analysis was performed using Prism GraphPad™ and Statview™. Periods were calculated over ≧3 days recoding For comparative purposes, transcriptional amplitude from PMT recordings was calculated as 100× (post-treatment emission peak-trough/pre-treatment peak-trough). […]

The next data set concerns cAMP levels. Description: cAMP ELISA in synchronised NIH 3T3 fibroblast cultures. The note with it: for cAMP levels: MDL at highest doses used. The class given is cell-based, mouse. The protocol:
as §3, §1

In a further data set the test system is Clock mutant SCN. The experiment in a line: Circadian period in Clock heterozygous and homozygous mutant SCN. The class given is cell-based, mice. Here is the method: as §1, with “Central cannulae directed stereotaxically at the SCN and sub-cutaneous minipumps (Alzet® model 1002 pump and brain infusion kit II) for drug infusion were fitted as instructed (Durect Corp. Cupertino, Calif.).” left out

The test system of the next data set is circadian period. The note with it: 0.3% lithium; 25% D2O; cited from earlier work.
Another data set has as its system JNK phosphorylation. Description: Western blot of 3T3 cell extracts (JNK and CREB phosphorylation). The class given is cell-based, mouse. Conditions: for JNK phosphorylation (pJNK): 3T3 cells, MDL 5.0 μm 40 hours, Epac agonist 100 μM, 2 hours; for CREB phosphorylation (pCREB): 3T3 cells given MDL, Epac agonist. The protocol:
Epac had no effect on CREB phosphorylation.
as §1
Background: Immunoblotting shows a protein as a band on a membrane.

Data set [2] deals with NIH 3T3 cells. The experiment in a line: Luciferase expression from control non-circadian promoter in NIH 3T3 cells. Format: cell-based, mouse.
Another data set concerns the target adenylyl cyclase. The note with it: irreversibly binds the Gsα site; cited from earlier work.
In another data set the test system is circadian clock. The note with it: administered in the evening; cited from earlier work.

As to 9-(Tetrahydro-2′-furyl)adenine [THFA], the “probable maximum period increase” value in the data set with NIH 3T3 cells [1] (1.2 mM THFA) is “approximately 9 hours”. In addition, the circadian period result in the data set with NIH 3T3 cells [1] (1.2 mM THFA, untreated about 21 hours) is “about 30 hours”; in the data set with NIH 3T3 cells [1] (fibroblasts transfected with mBmal::luc reporter, lengthening from ca. 21), around 31 h; in the data set on organotypic SCN slices (mPer1::luc and mPER2-LUC SCN slices, dose-dependent increase from ca. 24) it was around 31 h. Besides, the “effect on circadian period” value in the data set on NIH 3T3 cells [1] is “Dose-dependent saturable period lengthening”; in the data set with organotypic SCN slices, “reversible increase of circadian period; also recorded: Extended circadian period; also recorded: Reversible period lengthening; also recorded: period effect; also recorded: rapidly reversible upon drug washout; also recorded: increased period in individual neurons”; in the data set with peripheral tissues (2 mM THFA, all peripheral tissues tested), “lengthens period; also recorded: dramatic increase in circadian period; also recorded: increases period in all tissues tested”; with Clock mutant SCN, “prolongs circadian period; also recorded: additive to that of the Clock mutation”. Further, in the data set on organotypic SCN slices (SCN slices), the “saturating concentration of period lengthening (one-site inhibition model)” value is recorded as “around 2 mM”. Besides, in the data set on organotypic SCN slices (THFA together with JNK inhibition, SCN and fibroblast clockwork), the “circadian period under combined AC and JNK inhibition” value is “around 36 hours”. For the same compound, the “period after removal of the drug” value in the data set on organotypic SCN slices (in vitro, after chronic incubation with THFA) is reported as “approx. 24 hours”. Moreover, in the data set on SCN, the “free-running circadian period” value is on record as “lengthens circadian period; also recorded: lengthening of free-running period; also recorded: significantly (p<0:01, t-test) lengthened”. Besides, in the data set with intact human neutrophils, the “toxicity” value is “non-toxic”. Further, the “water solubility” value in “Water solubility” was “water-soluble; also recorded: most readily water soluble”. Besides, the “basal cAMP levels” value with cAMP levels (THFA) was “maintains basal levels; also recorded: without affecting its nadir; also recorded: did not alter basal levels of cAMP”. In addition, the “peak cAMP levels” value in the data set on cAMP levels (THFA) is listed as “suppresses peak levels; also recorded: reduces the detectable, endogenous, biphasic rise in cAMP; also recorded: attenuated peak levels”.
In the case of `C[C@H]1O[C@@H](n2cnc3c(N)ncnc32)C[C@@H]1O` [2′,5′-dideoxyadenosine, 2′,5′-Dideoxyadenosine], in the data set on organotypic SCN slices, the “effect on circadian period” value is “Reversible period lengthening; also recorded: Period was lengthened”. Besides, the solubility in “Water solubility” (water, read-out: water soluble up to) was at least 125 mM.
Take `[2H]O[2H]` [D2O]: in the data set with circadian period, the lengthening of period result is “approximately 5%”.
Regarding `CC(C)Cn1c(=O)n(C)c(=O)c2[nH]cnc21` [IBMX], the “effect on circadian period” value with NIH 3T3 cells [1] is given as “lengthened period in fibroblasts”. Moreover, the “effect of THFA combined with IBMX on circadian period” value in the data set with NIH 3T3 cells [1] (THFA 1 mM plus IBMX 300 uM) is “did not enhance the effect of THFA”.
With `CCCCCCOC(=O)[C@]1(O)C[C@@H]2O[C@@]1(C)n1c3ccccc3c3c4c(c5c6ccccc6n2c5c31)C(=O)NC4` [KT5720], in the data set on organotypic SCN slices, the “effect on circadian amplitude / gene expression” value was “no significant effect” and the “effect on circadian period” value is “no significant effect”.
Turning to `Cl.c1ccc(C2CCCC2NC2=NCCCCCCCCCCC2)cc1` (stereo not drawn) [MDL-12,330A], the “effect on circadian gene expression / output” value in the data set with NIH 3T3 cells [1] is recorded as “dose dependent suppression of circadian gene expression”; in the data set with NIH 3T3 cells [1] (listed as MDL) it was “Reversible, dose-dependent suppression of circadian output”. Also, the “synchrony of SCN neurons (CCD imaging)” value is on record as “desynchronisation” in the data set on organotypic SCN slices and “became desynchronised” in the data set with organotypic SCN slices (listed as MDL). Further, the “effect on circadian amplitude / gene expression” value in the data set with organotypic SCN slices was “reversible suppression of circadian protein expression; also recorded: reversible, dose-dependent dampening of circadian gene expression; also recorded: loss of circadian amplitude; also recorded: dampens transcriptional amplitude”; in the data set with organotypic SCN slices (listed as MDL) it was “rapid, dose-dependent dampening of circadian cycling; also recorded: lost circadian amplitude”. Further, in the data set with organotypic SCN slices, the “effect on circadian period” value was “not affected”. Moreover, the “effect on circadian output” value in the data set with peripheral tissues (organotypic kidney slices from mPER-2-LUC mice) is given as “Reversible, dose-dependent suppression of circadian output”. The “JNK phosphorylation (pJNK)” value with JNK phosphorylation is “decline in JNK phosphorylation”. In addition, the cAMP levels entry with cAMP levels was “loss of measurable cAMP”; with cAMP levels (listed as MDL), “suppressed cAMP levels to below the sensitivity of detection”. In addition, in the data set with NIH 3T3 cells [2], the “luciferase expression from control, non-circadian promoter” value is “no effect on luciferase expression”. The IC50 (usually the concentration needed to halve the response being measured) on adenylyl cyclase is 250 µM.
For `COc1ccc2[nH]cc(CCNC(C)=O)c2c1` [Melatonin], the “phase resetting effect on the circadian clock” value in the data set with circadian clock is listed as “approximately 30 minutes/day”.
For `COC1C2OP(O)(=S)OCC2OC1n1c(Sc2ccc(Cl)cc2)nc2c(N)ncnc21` (stereo not drawn) [Sp-8-CPT-2′-O-Me-cAMPS], in the data set with organotypic SCN slices, the “rescue of circadian gene expression in MDL-treated SCN slices” value is on record as “dramatically restored circadian output”, the “effect on circadian amplitude / gene expression” value is recorded as “no significant effect” and the “effect on circadian period” value was “no significant effect”. For the same compound, in the data set with organotypic SCN slices (listed as Epac agonist), the “rescue of circadian gene expression in MDL-treated SCN slices” value is “can be rescued; also recorded: acute activation and synchronisation of cellular circadian gene expression; also recorded: significantly increased luciferase activity; also recorded: transiently activated and re-synchronised circadian gene expression”. For the same compound, in the data set with JNK phosphorylation (listed as Epac), the “CREB phosphorylation (pCREB)” value was “no effect” and the “JNK phosphorylation (pJNK)” value is recorded as “significant increase in JNK activation”. Besides, in the data set with JNK phosphorylation (listed as Epac agonist), the “CREB phosphorylation (pCREB)” value was “not pCREB” and the “JNK phosphorylation (pJNK)” value was “reverses the decline in JNK phosphorylation; also recorded: increased pJNK”.
